Measurements reported in patent US9155729B2, “Thiazolidinedione analogues” (Metabolic Solutions Development Company, LLC, priority 2006, dated 2015).

Experiments:
PPARγ = molecular target: T1, PPARγ (Homo sapiens, UniProt P37231); assay: Commercial PPARγ binding assay (Invitrogen, PPAR-LBD/Fluormone PPAR Green complex); settings: for PPARγ binding signal (fluorescence polarization, Fluormone PPAR Green displacement): mean of three experiments
T1 construct: purchased Invitrogen Corporation, Carlsbad, Calif
T1 sequence (P37231 238-503 limits assumed): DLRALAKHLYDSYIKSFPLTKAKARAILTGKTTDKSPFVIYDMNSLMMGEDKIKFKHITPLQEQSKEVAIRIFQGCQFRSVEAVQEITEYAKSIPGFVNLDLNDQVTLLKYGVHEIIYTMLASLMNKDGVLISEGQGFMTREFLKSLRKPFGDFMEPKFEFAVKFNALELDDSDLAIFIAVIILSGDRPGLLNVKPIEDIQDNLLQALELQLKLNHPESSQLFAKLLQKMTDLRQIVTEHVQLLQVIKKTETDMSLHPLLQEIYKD
Procedure: The ability of several exemplary compounds of the present invention, shown in Table A, to bind to PPARγ was measured using a commercial binding assay (Invitrogen Corporation, Carlsbad, Calif.) that measures the test compounds ability to bind with PPAR-LBD/Fluormone PPAR Green complex. These assays were performed on three occasions with each assay using four separate wells (quadruplicate) at each concentration of tested compound. The data are mean and SEM of the values obtained from the three experiments. […] Compounds were added at the concentrations shown, which range from 0.1-100 micromolar.

Diabetic KKAy mice = assay: Glucose, insulin and triglyceride in diabetic KKAy mice, 4 days oral dosing; type: in vivo
Procedure: The insulin sensitizing and antidiabetic pharmacology are measured in the KKA^Y mice as previously reported [Hofmann, C., Lomez, K., and Colca, J. R. (1991). Glucose transport deficiency corrected by treatment with the oral anti-hyperglycemic agent Pioglitazone. Endocrinology, 129:1915-1925.]. Compounds are formulated in 1% sodium carboxy methylcellulose, and 0.01% tween 20 and dosed daily by oral gavage.
Compounds were formulated by suspension and orally dosed to KKAy mice at 93 mg/kg for 4 days. The compounds were first dissolved in DMSO and then placed into aqueous suspension containing 7-10% DMSO, 1% sodium methylcarboxycellulose, and 0.01% Tween 20. On the fifth day, the mice were fasted and blood samples were obtained approximately 18 hours after the last dose. The parameters were measured by standard assay methods. Data are mean and SEM N=6-12 mice.

[1] = 93 mg/kg orally for 4 days, fasted, blood approx. 18 hours after last dose, mean and SEM, N=6-12, 93 mg/kg

Compound	PPARγ binding signal (fluorescence polarization, Fluormone PPAR Green displacement) (PPARγ; 1 μM compound)	PPARγ binding signal (fluorescence polarization, Fluormone PPAR Green displacement) (PPARγ; 3 μM compound)	PPARγ binding signal (fluorescence polarization, Fluormone PPAR Green displacement) (PPARγ; 10 μM compound)	PPARγ binding signal (fluorescence polarization, Fluormone PPAR Green displacement) (PPARγ; 50 μM compound)	PPARγ binding signal (fluorescence polarization, Fluormone PPAR Green displacement) (PPARγ; 100 μM compound)	PPARγ binding signal (fluorescence polarization, Fluormone PPAR Green displacement) (PPARγ; .1 μM compound)	PPARγ binding signal (fluorescence polarization, Fluormone PPAR Green displacement) (PPARγ; .3 μM compound)	Binding to PPARγ (in words) (PPARγ; referring to FIG. 1 and Table B)	Glucose (Diabetic KKAy mice; [1]) [mg/dL]	Insulin (Diabetic KKAy mice; [1]) [ng/mL]	Triglycerides (Diabetic KKAy mice; [1]) [mg/dL]	Effectiveness at lowering glucose, insulin and triglyceride levels / antidiabetic activity (in words) (Diabetic KKAy mice; Table C)
CCc1ccc(CCOc2ccc(CC3(C)SC(=O)NC3=O)cc2)nc1 (single isomer, unassigned) [Compound 4]	234	224	200	122	91	236	230					
CCc1ccc(CCOc2ccc(CC3(C)SC(=O)NC3=O)cc2)nc1 (single isomer, unassigned) [Compound 6]	233	223	198	126	99	246	246	better PPARγ binding compounds	694 ± 63	11.1 ± 1.6	298 ± 49	not as effective as compounds 1 and 2
CCc1ccc(C(O)COc2ccc(CC3(C)SC(=O)NC3=O)cc2)nc1 (centres unmarked) [Compound 5]	228	226	212	132	106	235	230					

Now from value to compound, other results behind:

PPARγ binding signal (fluorescence polarization, Fluormone PPAR Green displacement) (PPARγ; 1 μM compound)	PPARγ binding signal (fluorescence polarization, Fluormone PPAR Green displacement) (PPARγ; 3 μM compound)	PPARγ binding signal (fluorescence polarization, Fluormone PPAR Green displacement) (PPARγ; 10 μM compound)	PPARγ binding signal (fluorescence polarization, Fluormone PPAR Green displacement) (PPARγ; 50 μM compound)	PPARγ binding signal (fluorescence polarization, Fluormone PPAR Green displacement) (PPARγ; 100 μM compound)	PPARγ binding signal (fluorescence polarization, Fluormone PPAR Green displacement) (PPARγ; .1 μM compound)	PPARγ binding signal (fluorescence polarization, Fluormone PPAR Green displacement) (PPARγ; .3 μM compound)	Binding to PPARγ (in words) (PPARγ; referring to FIG. 1 and Table B)	Compound	Glucose (Diabetic KKAy mice; [1]) [mg/dL]	Insulin (Diabetic KKAy mice; [1]) [ng/mL]	Triglycerides (Diabetic KKAy mice; [1]) [mg/dL]	Effectiveness at lowering glucose, insulin and triglyceride levels / antidiabetic activity (in words) (Diabetic KKAy mice; Table C)
240	234	219	126	93	245	239		CCc1ccc(C(=O)COc2ccc(CC3(C)SC(=O)NC3=O)cc2)nc1 (centres unmarked) [Compound 10]				
198	155	112	80	85	243	222		CCc1ccc(C(COc2ccc(CC3SC(=O)NC3=O)cc2)CC(=O)OC)nc1 (centres unmarked) [Compound 12]				
229	230	204	148	108	244	243		CCc1ccc(C(=CCO)COc2ccc(CC3SC(=O)NC3=O)cc2)nc1 (centres unmarked) [Compound 13]				
